Biological target: T1, DmCE1B_ct (Dysgonomonas mossii, UniProt F8X1N1)
T1 construct: gene HMPREF9456_02279; dimer; IMAC purified from E. coli BL21(DE3)
Test: X-ray crystal structure of soaked crystal, […] Å
Format: binding
Details: crystal soak with saturating MFA, 0.1 M Tris pH 8, 25% w/v PEG 6000; one MFA at edge of active site groove, one at dimer interface

T1 sequence (F8X1N1 294-656): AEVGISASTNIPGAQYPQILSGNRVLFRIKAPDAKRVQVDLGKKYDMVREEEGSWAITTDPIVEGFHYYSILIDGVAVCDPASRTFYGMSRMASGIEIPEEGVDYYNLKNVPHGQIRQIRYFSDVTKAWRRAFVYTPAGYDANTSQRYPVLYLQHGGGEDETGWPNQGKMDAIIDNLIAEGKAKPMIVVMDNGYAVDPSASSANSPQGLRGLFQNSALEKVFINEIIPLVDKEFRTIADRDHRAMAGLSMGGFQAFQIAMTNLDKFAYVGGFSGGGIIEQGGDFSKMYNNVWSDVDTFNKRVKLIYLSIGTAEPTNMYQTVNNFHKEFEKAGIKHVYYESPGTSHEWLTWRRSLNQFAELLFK

## COC(=O)/C=C/c1ccc(O)c(OC)c1 [MFA]
  X-ray crystal structure of soaked crystal, 1.41 Å: Two MFA molecules were observed and modeled (Fig. S15A)
